# Results published in paper PMC3262027 (Journal of Medicinal Chemistry, 2011).
# What was measured:
# [1] = target: T1, human quinone reductase 2 (QR2) (Homo sapiens, UniProt P16083); experiment: QR2 steady-state kinetic assay; type: biochemical; conditions: for inhibitory activity against QR2: result in words
# T1 sequence (P16083 1-231): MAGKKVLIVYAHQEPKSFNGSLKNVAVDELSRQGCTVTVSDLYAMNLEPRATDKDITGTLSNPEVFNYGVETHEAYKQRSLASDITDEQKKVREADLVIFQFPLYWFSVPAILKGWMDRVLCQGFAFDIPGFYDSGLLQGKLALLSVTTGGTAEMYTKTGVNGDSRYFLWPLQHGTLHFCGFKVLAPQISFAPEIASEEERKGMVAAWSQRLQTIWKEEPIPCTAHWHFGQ
# [2] = tested on: normal prostate stromal cells (PrSCs); conditions: result in words; cited from earlier work
# [3] = tested on: normal prostate epithelial cells (PrECs); conditions: result in words; cited from earlier work
smiles,measurement,setting,value
"COC(=O)c1cc(C(N)=O)nc2cc(N)c(N)c(Cl)c12 [Compound 23, Methyl 6,7-Diamino-2-carbamoyl-5-chloroquinoline-4-carboxylate]",increase in QR2 inhibitory activity,[1]; relative to 12,10 fold
"COC(=O)C1CC(O)(C(=O)OC)c2c(N)c(Cl)cc(Cl)c2N1 (centres unmarked) [Compound 26, Dimethyl 5-Amino-6,8-dichloro-4-hydroxy-1,2,3,4-tetrahydroquinoline-2,4-dicarboxylate]",inhibitory activity against QR2,[1],none showed inhibitory activity
"COC(=O)C1CC2(O)C(=O)Nc3c(Cl)cc(Cl)c(c32)N1 (centres unmarked) [Compound 33, Methyl 6,8-Dichloro-2a-hydroxy-2-oxo-1,2,2a,3,4,5-hexahydropyrrolo[4,3,2-d,e]quinoline-4-carboxylate]",inhibitory activity against QR2,[1],none showed inhibitory activity
Oc1ccc(/C=C/c2cc(O)cc(O)c2)cc1 [resveratrol],effect on cellular proliferation of PrSCs,[2],dose-dependent inhibition of cellular proliferation
same,effect on PrEC growth,[3],no effect
